Assay results: the NIST ThermoML archive (doi:10.1021/je100300s)

Key:
[1] = 101 kPa, Liquid
[2] = refractive index (Na D-line) (dimensionless); conditions: 101.33 kPa, Liquid, Standard Abbe refractometry
[3] = refractive index (Na D-line) (dimensionless); xn = mol fraction of the nth substance listed; conditions: 101 kPa, Liquid, Standard Abbe refractometry, x2 = 0
[4] = xn = mol fraction of the nth substance listed; conditions: 101 kPa, Liquid, x2 = 0

CC(O)CN (centres undefined) [1-amino-2-propanol]
Conditions | mass density, [1] [kg/m3] | refractive index, [2] | viscosity, [1] [mPa·s]
293.15 K | – | 1.448 | –
298.15 K | 956.51 | 1.44609 | 26.68
303.15 K | 952.52 | 1.44409 | 20.31
308.15 K | – | 1.44211 | –
313.15 K | 944.42 | 1.44009 | 12.51
318.15 K | – | 1.43817 | –
323.15 K | 936.19 | 1.43631 | 7.543
328.15 K | – | 1.43405 | –
333.15 K | 927.84 | 1.43208 | 5.22
343.15 K | 919.37 | – | 3.77

O [water] + CC(O)CN
Conditions | mass density, [4] [kg/m3] | refractive index, [3] | viscosity, [4] [mPa·s]
293.15 K | – | 1.33298 | –
298.15 K | – | 1.33249 | 0.882
303.15 K | – | 1.33193 | 0.804
308.15 K | – | 1.33136 | –
313.15 K | – | 1.33067 | 0.658
318.15 K | – | 1.3299 | –
323.15 K | 988.03 | 1.32906 | 0.551
328.15 K | – | 1.32818 | –
333.15 K | 983.19 | 1.32726 | 0.47
343.15 K | 977.75 | – | 0.407
